Measurements: PubChem BioAssay (NCI)
“And” between values parts separate entries of the source, which are not always exact repeats. Equal entries are not always repeated.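 In this assay, cells in 96-well plates receive the compound at five concentrations for 48 hours. Endpoints are linearly interpolated between the surrounding concentrations. The concentration for 50% growth inhibition is given as GI50. Definition used: TGI = concentration required for complete inhibition of growth.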

Key:
Test in all cases: NCI tumour cell line growth inhibition, 48 h
NCI-H522 lung = tested on: NCI-H522 lung
COLO 205 colon = tested on: COLO 205 colon
NCI-H226 lung = tested on: NCI-H226 lung
MOLT-4 leukemia = tested on: MOLT-4 leukemia
HS 578T breast = tested on: HS 578T breast
SNB-75 CNS = tested on: SNB-75 CNS
UO-31 renal = tested on: UO-31 renal
K-562 leukemia = tested on: K-562 leukemia
PC-3 prostate = tested on: PC-3 prostate
SK-OV-3 ovarian = tested on: SK-OV-3 ovarian
CCRF-CEM leukemia = tested on: CCRF-CEM leukemia
TK-10 renal = tested on: TK-10 renal
SN12C renal = tested on: SN12C renal
MCF7 breast = tested on: MCF7 breast

Row | SMILES | TGI (NCI-H522 lung) [µM] | TGI (COLO 205 colon) [µM] | TGI (NCI-H226 lung) [µM] | TGI (MOLT-4 leukemia) [µM] | TGI (HS 578T breast) [µM] | TGI (SNB-75 CNS) [µM] | TGI (UO-31 renal) [µM] | TGI (K-562 leukemia) [µM] | TGI (PC-3 prostate) [µM] | TGI (SK-OV-3 ovarian) [µM] | TGI (CCRF-CEM leukemia) [µM] | TGI (TK-10 renal) | TGI (SN12C renal) [µM] | TGI (MCF7 breast) [µM] | GI50 (UO-31 renal) | GI50 (K-562 leukemia) | GI50 (PC-3 prostate) | GI50 (TK-10 renal)
1 | CC1=C(C)C(=O)C(C2=C(C3=CC(=O)C(C)=C(C)C3=O)C(=O)c3ccccc3C2=O)=CC1=O | 5.49 | 3.93 | 21 | 5.3 | 43.5 | 19.6 | 4.95 | 19.7 | 7.83 | 30.5 | 7.22 | 15.9 µM | 4.06 |  |  |  |  | 
2 | Cc1cn2c(/C=C3/C(=O)Nc4ccccc43)c(C)nc2s1 | 21.5 | 15.6 |  | 15.2 | 7 | > 100 | 61.4 | 17.2 | 6.99 | 25.7 | 8.91 | > 100 µM | 42.2 | > 100 |  |  |  | 
3 | COc1ccc(/C=C(\Cl)c2ccc(OC)cc2)cc1 | > 100 | > 100 | > 100 | > 100 |  | > 100 | > 100 | > 100 |  | > 100 | > 100 | > 100 µM | > 100 |  |  |  |  | 
4 | O=C1c2ccccc2C(=O)c2c(O)c(NCCNCCO)cc(O)c21 |  |  | 14.9 | 10.4 |  | 17.9 | 11.7 | 10.4 |  |  | 13.2 | 17.7 µM | 14.9 |  |  |  |  | 
5 | Cc1cc(-c2ccc(C(=O)C(c3ccccc3)(c3ccccc3)c3ccccc3)[nH]2)on1 |  | 42.2 | 42.5 | 84.9 | > 100 | > 100 | 30.2 | > 100 | 49.1 | > 100 | 52.9 |  | 40.6 | > 100 |  |  |  | 
6 | O=C1C(NS(=O)(=O)c2ccccc2)=C(N(Cc2ccccc2)Cc2ccccc2)C(=O)c2ccccc21 |  | > 100 | > 100 | > 100 | > 100 | > 100 | 51.3 | > 100 | > 100 | > 100 | 77.4 | > 100 µM | > 100 | > 100 |  |  |  | 
7 | Cn1nc(C(=O)N2CC(CCl)c3c2cc([N+](=O)[O-])c2ccccc32)cc1NC(=O)Nc1cc(C(=O)N2CC(CCl)c3c2cc([N+](=O)[O-])c2ccccc32)nn1C (stereo not drawn) | > 100 | > 100 | > 100 | > 100 |  | > 100 | > 100 | > 100 | > 100 | > 100 |  | > 100 µM | > 100 | > 100 |  |  |  | 
8 | c1cc(C[S+]2CCCC2)oc1C[S+]1CCCC1 | > 100 | > 100 |  | > 100 | > 100 | > 100 | > 100 | > 100 | > 100 | > 100 | > 100 | > 100 µM | > 100 |  |  |  |  | 
9 | Cc1ccccc1NC(=O)CSc1nnc(Cc2ccccc2)o1 | > 100 | > 100 | > 100 | > 100 |  | > 100 | > 100 | > 100 |  | > 100 | > 100 | > 100 µM | > 100 |  |  |  |  | 
10 | Cc1ccc(F)c2c(=O)cc(-c3ccccc3)[nH]c12 | > 100 | > 100 | > 100 | > 100 |  | > 100 | > 100 | > 100 |  | > 100 | > 100 | > 100 µM | > 100 |  |  |  |  | 
11 | CN(C)Cc1[nH]c2ccccc2c1C(=O)c1ccccc1 | > 100 | > 100 | > 100 | > 100 |  | 74.9 | > 100 | > 100 |  |  | > 100 | > 100 µM |  |  |  |  |  | 
12 | CC(=O)C1=NN(c2ccccc2)C2(S1)SC(c1ccccc1)(c1ccccc1)c1ccccc12 (stereo not drawn) | 80.1 | > 100 | > 100 | > 100 |  | 71.1 | > 100 | > 100 |  | > 100 | > 100 | > 100 µM | > 100 |  |  |  |  | 
13 | COc1ccccc1Cn1[nH]c(=O)c2cc([N+](=O)[O-])ccc21 | > 100 | > 100 | > 100 | > 100 | > 100 | > 100 | > 100 | > 100 |  |  | > 100 | > 100 µM | > 100 |  |  |  |  | 
14 | CC(=O)Oc1cc(S(=O)(=O)Nc2n[nH]c(N)n2)c(S)cc1Cl | > 100 | > 100 |  | > 100 | > 100 |  | > 100 | > 100 | > 100 |  | > 100 | > 100 µM | > 100 | > 100 |  |  |  | 
15 | CC(Nc1n[nH]c(=O)c2c1nnn2Cc1ccccc1)c1ccccc1 (stereo not drawn) |  | > 100 |  | > 100 |  |  | > 100 | > 100 | > 100 |  | > 100 | > 100 µM and 64.7 µM | > 100 | > 100 | > 100 µM and 23.1 µM | > 100 µM and 22.8 µM | > 100 µM and 20.8 µM | 89.3 µM and 23.4 µM
16 | CCOC(=O)c1ccc(Nc2cnc3ccc(C(F)(F)F)cc3n2)cc1 |  | 29.3 | 35.9 | 24.5 | 59.1 | 42.8 | 48.6 | 53.7 | 55.5 | > 100 | 36.6 | 26.9 µM | 27.2 | 67.1 |  |  |  | 
17 | CCCOP(=S)(N1CC1)N1CC1 | > 100 | > 100 | > 100 | > 100 |  | > 100 | > 100 | > 100 |  | > 100 | > 100 | > 100 µM | > 100 |  |  |  |  | 
18 | O=C(Nc1ccc(S(=O)(=O)Nc2ncccn2)cc1)c1c2ccccc2nc2ccccc12 | > 100 | > 100 | > 100 | > 100 |  | > 100 | > 100 | > 100 | > 100 | > 100 |  | > 100 µM | > 100 | > 100 |  |  |  | 
19 | CCOC(=O)c1c(NC(=O)c2ccc(Br)cc2)sc2c1CCCC2 |  | > 100 | > 100 | > 100 | > 100 |  | > 100 | > 100 | > 100 |  | > 100 | > 100 µM | > 100 | > 100 |  |  |  | 
